In the assay the test system is Staphylococcus aureus, Kocuria rhizophila, Enterobacter gergoviae, Escherichia coli, Klebsiella pneumoniae, Pseudomonas aeruginosa, Pseudomonas fluorescens …. As to the kind of experiment: Koko test: preserving effect of preservatives in a cosmetic formulation (PEG-free emulsion for baby wipes), weekly re-inoculation and smears. The settings on record: use concentration of 1.0% by weight in the emulsion. Format: cell-based, bacteria, yeast, moulds. As for the experimental part:
The test described below serves to assess the preserving effect of chemical preservatives in cosmetic formulations. With the help of the described method, the aim is to test the efficacy of chemical preservatives with regard to pack preservation for cosmetic formulations. For this purpose, in different experimental batches to the nonpreserved samples, the preservatives to be investigated are added in different concentrations. A continual germ loading is achieved through periodic inoculation of the experimental batches. In parallel to the inoculation, smears of the individual batches are performed in each case directly beforehand. […] To be on the safe side, negative smears are observed for a further two days and assessed again. Assessment of the preserving effect of the individual product concentrations is performed in a semi-quantitative method via the growth of the individual smears. −=growth-free ++=moderate growth +=weak growth +++=strong growth The growth is differentiated according to bacteria, yeasts and moulds (“B”=bacteria, “Y”=yeasts, “M”=moulds, “Sp”=spore-forming bacteria, “/”=the test was terminated). […] The sample is well preserved if, under the aforementioned laboratory conditions, it withstands a period of six weeks without microbial attack of the sample batches, i.e. microbial growth cannot be detected even after the sixth inoculation. […]

Structures can show the parent of a compound that is named as a salt.

As for `CCCCCCCCN=c1ccn(CCCCCCCCCCn2ccc(=NCCCCCCCC)cc2)cc1` [Octenidine dihydrochloride], the “Preserving effect, overall assessment in words” value was “does not have an antimicrobial effect on its own”.

Values taken from patent US20180250207A1, “LIQUID CONCENTRATE FOR PRESERVING COSMETICS” (SCHÜLKE & MAYR GMBH, priority 2015, published 2018).
